Where no end group is shown, it is not given here. red fluorescent dye = not defined here
Tests used:
JAK3 = molecular target: T1, JAK3 (Homo sapiens, UniProt P52333); assay: Cell-based kinase assay, phosphorylation of intracellular substrate (Tyr-1022/1023 JAK1)
T1 construct: endogenous in cells
T1 sequence (P52333 1-1124): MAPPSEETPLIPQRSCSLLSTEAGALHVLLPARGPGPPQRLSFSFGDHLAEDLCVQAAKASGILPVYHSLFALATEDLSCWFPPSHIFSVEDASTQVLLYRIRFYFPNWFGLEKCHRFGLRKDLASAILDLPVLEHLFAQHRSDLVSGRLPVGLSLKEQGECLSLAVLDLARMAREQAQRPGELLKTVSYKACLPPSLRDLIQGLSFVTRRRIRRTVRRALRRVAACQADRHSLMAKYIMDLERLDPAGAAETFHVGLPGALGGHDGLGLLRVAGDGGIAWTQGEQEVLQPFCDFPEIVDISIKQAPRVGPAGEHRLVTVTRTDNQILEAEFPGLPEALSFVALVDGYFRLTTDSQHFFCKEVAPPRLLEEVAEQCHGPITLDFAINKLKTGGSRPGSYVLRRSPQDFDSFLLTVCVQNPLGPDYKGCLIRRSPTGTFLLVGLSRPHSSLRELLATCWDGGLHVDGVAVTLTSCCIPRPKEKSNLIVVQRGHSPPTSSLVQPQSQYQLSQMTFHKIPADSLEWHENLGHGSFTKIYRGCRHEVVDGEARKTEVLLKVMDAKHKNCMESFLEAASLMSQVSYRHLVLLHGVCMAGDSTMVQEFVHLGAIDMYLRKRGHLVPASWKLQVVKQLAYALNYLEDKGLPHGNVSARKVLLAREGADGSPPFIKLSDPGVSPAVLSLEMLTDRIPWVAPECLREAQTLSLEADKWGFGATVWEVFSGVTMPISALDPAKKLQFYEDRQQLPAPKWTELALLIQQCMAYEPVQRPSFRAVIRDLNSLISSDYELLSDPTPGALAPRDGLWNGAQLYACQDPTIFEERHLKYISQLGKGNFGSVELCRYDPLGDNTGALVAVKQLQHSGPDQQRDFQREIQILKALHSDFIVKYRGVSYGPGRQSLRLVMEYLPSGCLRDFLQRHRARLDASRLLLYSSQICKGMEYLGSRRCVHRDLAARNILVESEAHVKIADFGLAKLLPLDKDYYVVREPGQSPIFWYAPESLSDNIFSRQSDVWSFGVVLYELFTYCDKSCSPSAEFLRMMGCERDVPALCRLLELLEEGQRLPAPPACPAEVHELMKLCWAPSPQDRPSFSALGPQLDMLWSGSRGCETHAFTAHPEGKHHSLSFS
Experimental: (§1) As a specific substrate, the phosphorylation level of GSK-3[…] at Ser-9 was also evaluated. […] The decrease was specific to the AKT phosphorylation site on GSK-3[…] at Ser-9, since a change in the phosphorylation level of GSK-3[…] at Tyr-216 or GSK-3[…] at Tyr-279 was not observed. Moreover, the in vivo reduction of the phosphorylation of AKT substrates was more obvious at the injection site, since a significant change in the phosphorylation of AKT substrates in the frontal cortex or cerebellum between the two hemispheres was not observed. […] To test the specificity/selectivity of ZaTa as the inhibitor of AKT1 versus the other major kinases, a series of in vitro kinase assays was performed at IC50 for AKT1 and at ten times higher concentrations. […]
(§2) Phosphorylation sites for kinases analyzed herein included Ser-235/236 S6 (a substrate for p70S6K), Tyr-207 CRKL (a substrate for Abl; Zipfel, et al. (2004) supra), Ser-241 PDK1 (a substrate for PI3K), Tyr-1022/1023 JAK1 (a substrate for JAK3; Wang, et al. (2003) supra), Ser-421 Huntingtin (a substrate for SGK; Rangone, et al. (2004) supra), Tyr-783 PLC (a substrate for TrkB; Middlemas, et al. (1994) supra), and Ser-338 cRaf (a substrate for PAK3; King, et al. (1998) supra).

p70S6K [1] = molecular target: T2, p70S6K (Homo sapiens, UniProt P23443); assay: Cell-based kinase assay, phosphorylation of intracellular substrate (Ser-235/236 S6)
T2 construct: endogenous in cells
T2 sequence (P23443 whole entry): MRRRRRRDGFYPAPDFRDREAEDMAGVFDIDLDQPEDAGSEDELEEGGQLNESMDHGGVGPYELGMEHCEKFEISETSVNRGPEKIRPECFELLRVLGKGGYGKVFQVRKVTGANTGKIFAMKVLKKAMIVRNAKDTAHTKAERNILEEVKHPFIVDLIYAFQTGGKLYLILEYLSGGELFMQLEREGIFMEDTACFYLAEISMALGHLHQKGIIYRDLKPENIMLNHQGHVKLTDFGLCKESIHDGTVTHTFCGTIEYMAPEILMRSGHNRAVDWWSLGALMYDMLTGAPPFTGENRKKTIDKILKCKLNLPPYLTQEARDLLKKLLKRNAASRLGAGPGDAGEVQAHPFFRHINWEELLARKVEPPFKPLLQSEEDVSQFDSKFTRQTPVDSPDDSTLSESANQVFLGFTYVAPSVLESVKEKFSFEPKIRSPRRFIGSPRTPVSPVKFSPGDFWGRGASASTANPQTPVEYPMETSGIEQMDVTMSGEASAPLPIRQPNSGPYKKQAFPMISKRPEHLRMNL
Experimental: as §1, §2

Abl = molecular target: T3, Abl (Mus musculus, UniProt P00520); assay: In vivo selectivity, western blot of phosphorylated substrate after injection into one hemisphere; conditions: versus DMSO hemisphere
T3 construct: from tissue; host or cells: mouse brain hemisphere (striatum injection)
T3 sequence (P00520 whole entry): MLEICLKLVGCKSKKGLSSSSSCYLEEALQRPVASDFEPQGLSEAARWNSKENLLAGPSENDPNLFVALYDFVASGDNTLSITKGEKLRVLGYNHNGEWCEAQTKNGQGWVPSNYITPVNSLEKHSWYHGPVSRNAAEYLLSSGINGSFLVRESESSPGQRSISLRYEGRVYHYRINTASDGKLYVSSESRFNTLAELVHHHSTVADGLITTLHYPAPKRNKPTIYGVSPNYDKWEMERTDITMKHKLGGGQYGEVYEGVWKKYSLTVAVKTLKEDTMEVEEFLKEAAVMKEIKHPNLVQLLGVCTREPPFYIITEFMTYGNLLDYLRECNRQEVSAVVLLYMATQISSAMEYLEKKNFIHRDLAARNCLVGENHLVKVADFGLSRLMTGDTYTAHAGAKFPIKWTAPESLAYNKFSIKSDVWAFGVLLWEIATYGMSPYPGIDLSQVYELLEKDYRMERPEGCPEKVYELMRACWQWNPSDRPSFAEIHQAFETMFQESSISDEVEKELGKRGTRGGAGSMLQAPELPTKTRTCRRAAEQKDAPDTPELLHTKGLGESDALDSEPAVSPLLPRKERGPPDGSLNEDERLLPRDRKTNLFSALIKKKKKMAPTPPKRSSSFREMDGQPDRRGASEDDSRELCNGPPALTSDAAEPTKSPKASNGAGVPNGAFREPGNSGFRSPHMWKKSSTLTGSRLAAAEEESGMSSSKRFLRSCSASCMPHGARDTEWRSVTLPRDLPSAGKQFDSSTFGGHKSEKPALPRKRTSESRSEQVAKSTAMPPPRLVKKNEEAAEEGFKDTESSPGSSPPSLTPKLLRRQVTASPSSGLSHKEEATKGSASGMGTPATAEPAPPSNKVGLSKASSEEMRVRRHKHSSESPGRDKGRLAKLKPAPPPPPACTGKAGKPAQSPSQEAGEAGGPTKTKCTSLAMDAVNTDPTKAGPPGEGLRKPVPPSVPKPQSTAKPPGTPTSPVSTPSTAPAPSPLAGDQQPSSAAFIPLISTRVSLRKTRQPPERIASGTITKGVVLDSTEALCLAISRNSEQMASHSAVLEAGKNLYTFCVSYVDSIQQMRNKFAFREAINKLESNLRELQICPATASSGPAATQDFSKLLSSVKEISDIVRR
Experimental: (§3) To analyze in vivo selectivity, ZaTa was injected into one hemisphere and DMSO in the other hemisphere, as above, and a series of western blot analyses was preformed with phospho-specific antibodies which recognize a phosphorylated substrate or each one of the kinases that ZaTa inhibited at higher concentrations in vitro. […] Given the high functional and structural homology between p70S6K and AKT, the in vivo inhibitory effect of ZaTa on p70S6K was contemplated. Furthermore, the in vivo effect of ZaTa on the phosphorylation levels of substrates for PKA, PKC, CDKs using phospho-specific antibodies recognizing the phosphorylated consensus sites of these kinases was analyzed. In contrast to the consistent decrease in phosphorylation of AKT substrates, significant changes in the phosphorylation level of PKA, PKC and CDKs substrates was not observed after in vivo injection of ZaTa.
as §2

p70S6K [2] = molecular target: T4, p70S6K (Mus musculus, UniProt Q8BSK8); assay: as above; conditions: versus DMSO hemisphere
T4 construct: from tissue; host or cells: mouse brain hemisphere
T4 sequence (Q8BSK8 whole entry): as the sequence (P23443 whole entry) above, with P12L, D18H, M488V counted along it
Experimental: as §3, §2

Substance | inhibition of JAK3 in cells (JAK3) | inhibition of p70S6K in cells (p70S6K [1]) | in vivo inhibition of Abl (Abl) | in vivo inhibition of p70S6K (p70S6K [2])
labeled ZaTa: ZaTa peptide labeled with a red fluorescent dye at its N-terminus ({red fluorescent dye}-AKRVKGRTWTLCGTPEY; reading uncertain) | did not cause inhibition | – | – | –
AKRVKGRTWTLCGTPEY [ZaTa] | – | could inhibit p70S6K | weaker in vivo inhibition | potent in vivo inhibition

From patent US8541670B2, “Compositions and methods for inhibiting tumor cell growth” (priority 2007, dated 2013)
